Data taken from patent US7557123B2, “Heterocyclic compound and medicinal use thereof” (Kyoto Pharmaceutical Industries, Ltd., priority 2001, dated 2009).

What was measured:
male KK-A^y mice = assay: Hypoglycemic and hypolipidemic activity in spontaneously diabetic KK-Ay mice; type: in vivo; conditions: 10 mg/kg/day orally for 4 consecutive days, plasma 24 hours after final administration, non-fasting, vs control group
Protocol: Blood was drawn under a non-fasting state from the tail vein of male KK-A^y mice, and the glucose and triglyceride levels of the plasma were measured using commercially available assay kits (glucose CII-test WAKO and triglyceride G-test WAKO, Wako Pure Chemical Industries, Ltd.). The mice were grouped (5 mice per group) into a control group and an administration group, such that the mean and standard deviation of the body weight and the plasma glucose and plasma triglyceride levels in each group were nearly the same. The test compounds (compounds of Examples 1, 2, 4, 8, 20, 22, 24, 27, 30, 33, 36, 37, 40, 45, 47, 52, 56, 58 and 64) were suspended in 5% gum arabic solution and administered (10 mg/kg/day) orally to the administration group for 4 consecutive days. The 5% gumarabic solution was orally administered to the control group. Blood was drawn under a non-fasting state from the tail vein 24 hours after the final administration and the glucose and triglyceride levels of the plasma were measured. The decrease in the plasma glucose and triglyceride levels was calculated from the following formula. Decrease (%)=[(mean of control group−mean of test compound administration group)/mean of control group]×100 Results

[1] = Solubility of the compound in water (buffer pH 7.0); type: physicochemical
Protocol: The pulverized test compound (compounds of Examples 2, 20, 22, 24, 27, 30, 40 or 65, 25 mg) was added to a buffer (1.0 ml, pH 7.0) and the mixture was shaken at 25° C. for 1 hr and passed through a membrane filter. The concentration of the test compound in the filtrate was measured by high performance liquid chromatography.

male db/db mice = assay: Hypoglycemic and hypolipidemic activity in db/db mice; type: in vivo; conditions: 3 mg/kg/day orally for 2 consecutive weeks, plasma 24 hours after final administration, non-fasting, vs control group
Protocol: Using db/db mice genetically showing high plasma glucose, hypertriglyceridemia, insulin resistance and obesity, the pharmacological activity of the test compounds of Examples 1, 2 and 20 was examined.
Blood was drawn under a non-fasting state from the tail vein of male db/db mice, the glucose level and triglyceride level of the plasma were measured using commercially available assay kits (glucose CII-test WAKO and triglyceride G-test WAKO, Wako Pure Chemical Industries, Ltd.). The mice were grouped (6 mice per group) into a control group and test compound (compounds of Examples 1, 2 and 20) administration group (3 mg/kg/day), such that the mean and standard deviation of the body weight and the plasma glucose and plasma triglyceride levels in each group were nearly the same. The test compound was suspended in 0.5% methylcellulose solution and administered orally for 2 consecutive weeks from the next day. The 0.5% methylcellulose solution was orally administered to the control group. Blood was drawn under a non-fasting state from the tail vein 24 hours after the final administration and the glucose and triglyceride levels of the plasma were measured. The decrease in the plasma glucose and triglyceride levels was calculated from the following formula. Decrease (%)=[(mean of control group−mean of test compound administration group)/mean of control group]×100 Results

[2] = 25 mg in 1.0 ml buffer pH 7.0, shaken at 25° C. for 1 hr, filtrate by HPLC

Structure (SMILES) | Decrease (%) in glucose level (male KK-A^y mice) | Decrease (%) in triglyceride level (male KK-A^y mice) | also measured
Cc1oc(C=Cc2ccccc2)nc1CCOc1ccc2c(c1)CN(C(=O)C(F)(F)C(F)(F)F)[C@H](C(=O)O)C2 [Example 8, 7-[2-(5-methyl-2-styryloxazol-4-yl)ethoxy]-2-pentafluoropropionyl-1,2,3,4-tetrahydroisoquinoline-(3S)-carboxylic acid] | 57.2% | 71.1% | 
CC(C)(C)N.CCC/C=C/c1nc(CCOc2ccc3c(c2)CN(C(=O)C(F)(F)CC)[C@H](C(=O)O)C3)c(C)o1 (stereo in doubt) [Example 52, tert-butylamine 2-(2,2-difluorobutyryl)-7-{2-[5-methyl-2-(trans-1-penten-1-yl)oxazol-4-yl]ethoxy}-1,2,3,4-tetrahydroisoquinoline-(3S)-carboxylate] | 26.6% | 19.1% | 
CC(C)(C)N.CCC/C=C/c1nc(CCOc2ccc3c(c2)CN(C(=O)C=CCC(C)C)[C@H](C(=O)O)C3)c(C)o1 (stereo in doubt) [Example 47, tert-butylamine 2-(5-methyl-2-hexenoyl)-7-(2-[5-methyl-2-(trans-1-penten-1-yl)oxazol-4-yl]ethoxy}-1,2,3,4-tetrahydroisoquinoline-(3S)-carboxylate] | 29.9% | 10.9% | 
CC(C)(C)N.CCCCC=CC(=O)N1Cc2cc(OCCc3nc(/C=C/CC(C)C)oc3C)ccc2C[C@H]1C(=O)O (stereo in doubt) [Example 24, tert-butylamine-2-(2-heptenoyl)-7-{2-[5-methyl-2-(4-methyl-trans-1-penten-1-yl)oxazol-4-yl]ethoxy}-1,2,3,4-tetrahydroisoquinoline-(3S)-carboxylate] | 52.8% | 50.7% | Solubility ([1]; pH 7): 18.7 mg/mL
CCC/C=C/c1nc(CCOc2ccc3c(c2)CN(C(=O)C(F)(F)C(F)(F)F)[C@H](C(=O)O)C3)c(C)o1 (stereo in doubt) [Example 37] | 53.2% | 50.1% | 
CC(C)(C)N.CC=CC=CC(=O)N1Cc2cc(OCCc3nc(/C=C/C4(C)CCCCC4)oc3C)ccc2C[C@H]1C(=O)O (stereo in doubt) [Example 56] | 21.0% | 11.9% | 
C=CCCN1Cc2cc(OCCc3nc(/C=C/CC(C)C)oc3C)ccc2C[C@H]1C(=O)O (stereo in doubt) [Example 64, 2-(3-butenyl)-7-{2-[5-methyl-2-(4-methyl-trans-1-penten-1-yl)oxazol-4-yl]ethoxy}-1,2,3,4-tetrahydroisoquinoline-(3S)-carboxylic acid] | 29.4% | 25.1% | 
C=CCCCN1Cc2cc(OCCc3nc(/C=C/CC(C)C)oc3C)ccc2C[C@H]1C(=O)O (stereo in doubt) [Example 58, 7-{2-[5-methyl-2-(4-methyl-trans-1-penten-1-yl)oxazol-4-yl]ethoxy}-2-(4-pentenyl)-1,2,3,4-tetrahydroisoquinoline-(3S)-carboxylic acid] | 25.1% | 23.2% | 
CC(C)(C)N.CC=CC=CC(=O)N1Cc2cc(OCCc3nc(/C(C)=C/CCC)oc3C)ccc2C[C@H]1C(=O)O (stereo in doubt) [Example 33, tert-butylamine 2-(2,4-hexadienoyl)-7-(2-[5-methyl-2-(1-methyl-trans-1-penten-1-yl)oxazol-4-yl]ethoxy}-1,2,3,4-tetrahydroisoquinoline-(3S)-carboxylate] | 58.2% | 68.3% | 
CC(C)(C)N.CC=CC=CC(=O)N1Cc2cc(OCCc3nc(/C=C/CCC(C)C)oc3C)ccc2C[C@H]1C(=O)O (stereo in doubt) [Example 30, tert-butylamine 2-(2,4-hexadienoyl)-7-{2-[5-methyl-2-(5-methyl-trans-1-hexen-1-yl)oxazol-4-yl]ethoxy}-1,2,3,4-tetrahydroisoquinoline-(3S)-carboxylate] | 55.4% | 57.0% | Solubility [1, 2]: 17.3 mg/mL
CC(C)(C)N.CC=CC=CC(=O)N1Cc2cc(OCCc3nc(/C=C/C4CCCC4)oc3C)ccc2C[C@H]1C(=O)O (stereo in doubt) [Example 22, tert-butylamine 7-{2-[2-(trans-2-cyclopentylvinyl)-5-methyloxazol-4-yl]ethoxy}-2-(2,4-hexadienoyl)-1,2,3,4-tetrahydroisoquinoline-(3S)-carboxylate] | 45.3% | 51.4% | Solubility (mg/ml) [1, 2]: 25 or above mg/ml
CC(C)(C)N.CC=CC=CC(=O)N1Cc2cc(OCCc3nc(/C=C/C4CCCCC4)oc3C)ccc2C[C@H]1C(=O)O (stereo in doubt) [Example 40] | 54.3% | 37.0% | Solubility [1, 2]: 18.7 mg/mL
CC(C)(C)N.CC=CC=CC(=O)N1Cc2cc(OCCc3nc(/C=C/CCCC)oc3C)ccc2C[C@H]1C(=O)O (stereo in doubt) [Example 27, tert-butylamine 2-(2,4-hexadienoyl)-7-{2-[2-(trans-1-hexen-1-yl)-5-methyloxazol-4-yl]ethoxy}-1,2,3,4-tetrahydroisoquinoline-(3S)-carboxylate] | 53.4% | 36.5% | Solubility (mg/ml) [1, 2]: 25 or above mg/ml
CCC/C=C/c1nc(CCOc2ccc3c(c2)CN(C(=O)C=CCCCC)[C@H](C(=O)[O-])C3)c(C)o1.[Na+] (stereo in doubt) [Example 1, sodium 2-(2-heptenoyl)-7-[2-(5-methyl-2-(trans-1-penten-1-yl)oxazol-4-yl)ethoxy]-1,2,3,4-tetrahydroisoquinoline-(3S)-carboxylate] | 46.1% | 45.3% | Decrease (%) in glucose level (male db/db mice): 21.3%; Decrease (%) in triglyceride level (male db/db mice): 62.7%
CC(C)(C)N.CC=CC=CC(=O)N1Cc2cc(OCCc3nc(/C(C)=C/CC)oc3C)ccc2C[C@H]1C(=O)O (stereo in doubt) [Example 36, tert-butylamine 2-(2,4-hexadienoyl)-7-{2-[5-methyl-2-(1-methyl-trans-1-buten-1-yl)oxazol-4-yl]ethoxy}-1,2,3,4-tetrahydroisoquinoline-(3S)-carboxylate] | 39.8% | 27.5% | 
CC(C)(C)N.CC=CC=CC(=O)N1Cc2cc(OCCc3nc(/C=C/COC)oc3C)ccc2C[C@H]1C(=O)O (stereo in doubt) [Example 65] |  |  | Solubility [1, 2]: 20.5 mg/mL
CCCC#CC(=O)N1Cc2cc(OCCc3nc(/C=C/CCC)oc3C)ccc2C[C@H]1C(=O)O (stereo in doubt) [Example 4, 2-(2-hexynoyl)-7-[2-(5-methyl-2-(trans-1-penten-1-yl)oxazol-4-yl)ethoxy]-1,2,3,4-tetrahydroisoquinoline-(3S)-carboxylic acid] | 40.3% | 40.5% | 
CC(C)(C)N.CC=CC=CC(=O)N1Cc2cc(OCCc3nc(/C=C/CC(C)(C)C)oc3C)ccc2C[C@H]1C(=O)O (stereo in doubt) [Example 45, tert-butylamine 7-{2-[2-(4,4-dimethyl-trans-1-penten-1-yl)-5-methyloxazol-4-yl]ethoxy)-2-(2,4-hexadienoyl)-1,2,3,4-tetrahydroisoquinoline-(3S)-carboxylate] | 38.7% | 32.6% | 
